{"source": "patent US20220370382A1", "about": "“METHODS AND COMPOSITIONS FOR CORRECTION OF AUTONOMIC DYSFUNCTIONS” (priority 2021, published 2022)", "key": {"[1]": {"settings": "cited from earlier work"}, "[2]": {"tested_on": "effector organs of the vagus nerve", "assay": "Stimulation of the effector organs of the vagus nerve in patients tested", "format": "in vivo, human", "excerpt": "Certain ingredients of the compound (a choline compound, an acetylcholinesterase inhibitor and Acetyl-L-Carnitine) have been used to reduce inflammation, to assist those suffering from metabolic insufficiencies, and for healthy memory and mental function, and numerous studies have been published involving cognition, dementia, age-related memory loss and neurodegeneration with these ingredients. (U.S. Pat. No. 6,537,969 B1, Patent No. US 2008/0213401). […] It is not intuitive or obvious that any two of these ingredients can also be effective and that any two of these ingredients can restore parasympathetic nerve function even when the postganglionic nerve is not viable for any reason, by directly stimulating the effector organs themselves.\nDriscoll found the use of nicotine can diagnose pre-ganglionic vagus nerve dysfunction. […] Nicotine (transdermal, suppository, or) can be used to discern receptor damage from either direct nerve damage or neurotransmitter dysfunction. These forms of nicotine can be used to verify that the organ is capable of responding, to test the cholinergic receptors or postganglionic nerve, or can be used for short periods of time to assist with said organ function (ileocecal valve, gastroparesis/constipation, gallbladder, pancreas, gastric acid secretion). No part of the vagus nerve is required for the use of nicotine to be effective because the invention can effectively stimulate the receptor on the organ itself. […]"}, "[3]": {"settings": "person, Ehlers-Danlos syndrome, given for a hospital-induced infection"}, "[4]": {"tested_on": "patients with autonomic dysfunction and/or connective tissue disorders", "assay": "Patient case studies: other signs (tachycardia, dry eyes, light sensitivity, Roth spot, gallbladder function, pseudotumor cerebri symptoms)", "format": "in vivo, human", "settings": "person, POTS, Idiopathic Intracranial Hypertension; acetazolamide 250 mg three times per day", "description": "They also suffered with poor digestion, dry eyes, and fatigue.\nMost every day (usually in the evenings) they experienced pseudo seizures lasting from 30 minutes to three hours. These began with their eyes rolling up and their eyelids fluttering, then they progressed to full body twitching and spasming. These pseudo seizures continued for over three years, but physicians were unable to locate the source of their symptoms. A Roth spot in their ocular fundus in addition to numerous symptoms of nutrient malabsorption were noted. They suffered with light sensitivity secondary to large pupils (5.5 mm), weight loss, extreme fatigue, constipation, tachycardia, and dry eyes.\nGallbladder removal surgery was recommended."}, "[5]": {"tested_on": "patients with autonomic dysfunction and/or connective tissue disorders", "settings": "person, POTS, Idiopathic Intracranial Hypertension; acetazolamide 250 mg three times per day", "quoted_text": "Acetazolamide was prescribed for high intracranial pressure."}}}
{"molecule": "CN1CCCC1c1cccnc1", "note": "(centres unmarked) [Nicotine]", "values": [{"measurement": "lethal dosage", "setting": "[1]; human, in vivo", "result": 60, "unit": "mg"}, {"measurement": "side effects on chronic use", "setting": "[1]; treatment of parasympathetic and vagus nerve dysfunction on a chronic basis", "result": "dermatographia, hives, itching, and welting"}]}
{"molecule": "Cc1ncc(C[n+]2csc(CCO)c2C)c(N)n1", "note": "[Thiamin]", "values": [{"measurement": "autonomic dysfunction or disorders of the effector organs of the parasympathetic nervous system", "setting": "[2]; supplementation alone", "result": "will not eliminate"}]}
{"molecule": "CN[C@H](CC(C)C)C(=O)N[C@H]1C(=O)N[C@@H](CC(N)=O)C(=O)N[C@H]2C(=O)N[C@H]3C(=O)N[C@H](C(=O)N[C@H](C(=O)O)c4cc(O)cc(O)c4-c4cc3ccc4O)[C@H](O)c3ccc(c(Cl)c3)Oc3cc2cc(c3O[C@@H]2O[C@H](CO)[C@@H](O)[C@H](O)[C@H]2O[C@H]2C[C@](C)(N)[C@H](O)[C@H](C)O2)Oc2ccc(cc2Cl)[C@H]1O", "note": "[Vancomycin]", "values": [{"measurement": "adverse reaction to antibiotic", "setting": "[3]", "result": "developed hives and dramatic flushing"}]}
{"molecule": "CC(=O)Nc1nnc(S(N)(=O)=O)s1", "note": "[acetazolamide]", "values": [{"measurement": "pseudotumor cerebri symptoms", "setting": "[4]", "result": "relieved"}, {"measurement": "visual snow", "setting": "[5]", "result": "did not improve"}]}
{"molecule": "C[N+](C)(C)CC(O)CC(=O)[O-]", "note": "(centres unmarked) [carnitine]", "values": [{"measurement": "organ function when added to the compound", "setting": "[2]; case studies, patients with organ malfunction secondary to poor vagus nerve function", "result": "better organ function"}]}
{"molecule": "CN1CCCC1c1cccnc1", "note": "(centres unmarked) [oral nicotine, nicotine]", "values": [{"measurement": "stimulation of the effector organs of the vagus nerve / restoration of vagus nerve function", "setting": "[2]; patients tested, ingredient used alone, or nicotine by the stated route (transdermal 1-21 mg)", "result": "not effective"}]}
